Counter-ions that a name gives are not always drawn.

System in one data set: not given
Experiment: not given
Settings: not given
In turn, `C/C(=N\NC(=N)N)c1ccn(S(=O)(=O)c2ccccc2)c1` (as salt: hydrochloride) [Example 14, 2-{(E)-1-[1-(phenylsulfonyl)-1H-pyrrol-3-yl]ethylidene}hydrazinecarboximidamide] gave a melting point of 220 to 221 °C. On the same count and under the same terms, then `C/C(=N\NC(=N)N)c1ccn(S(=O)(=O)c2ccc(C)cc2)c1` (as salt: hydrochloride) [Example 15, 2-{(E)-1-[1-(4-methylphenylsulfonyl)-1H-pyrrol-3-yl]ethylidene}hydrazine-carboximidamide], with 277 to 279 °C; and `C/C(=N\NC(=N)N)c1ccn(S(=O)(=O)c2sc3ccc(Cl)cc3c2C)c1` (as salt: hydrochloride) [Example 17], with 285 °C (dec.). On the same count and under the same terms, as for `C/C(=N\NC(=N)N)c1ccn(S(=O)(=O)c2ccc(N)cc2)c1` (as salt: hydrochloride) [Example 18, 2-((E)-1-{1-[(4-aminophenyl)sulfonyl]-1H-pyrrol-3-yl}ethylidene)-1-hydrazine-carboximidamide], the figure is 198 to 200 °C; as for `C/C(=N\NC(=N)N)c1ccn(S(=O)(=O)c2sc(N)nc2C)c1` (as salt: hydrochloride) [Example 19, 2-((E)-1-{1-[(2-amino-4-methyl-1,3-thiazol-5-yl)sulfonyl]-1H-pyrrol-3-yl}ethylidene)-1-hydrazinecarboximidamide], 225 °C (dec.).

The target in the next data set is T1, human cloned 5-HT6 receptors (Homo sapiens, UniProt P50406).
T1 construct: expressed in transfected cells; host or cells: Hela cells
T1 sequence (P50406 whole entry): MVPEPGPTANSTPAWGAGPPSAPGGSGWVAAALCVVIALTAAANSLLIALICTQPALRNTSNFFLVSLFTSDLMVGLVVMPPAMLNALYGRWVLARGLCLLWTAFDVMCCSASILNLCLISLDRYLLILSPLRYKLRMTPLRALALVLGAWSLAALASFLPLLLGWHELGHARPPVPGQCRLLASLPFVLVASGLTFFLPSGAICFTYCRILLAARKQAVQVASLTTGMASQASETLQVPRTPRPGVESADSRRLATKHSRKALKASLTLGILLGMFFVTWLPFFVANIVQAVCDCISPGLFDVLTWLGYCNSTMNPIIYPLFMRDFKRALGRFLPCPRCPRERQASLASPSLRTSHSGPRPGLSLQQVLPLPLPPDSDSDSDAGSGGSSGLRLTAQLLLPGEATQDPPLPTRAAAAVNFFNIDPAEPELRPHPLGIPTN
The data set is described as follows: 5-HT6 binding affinity, [3H]-LSD displacement on membranes of Hela cells expressing human cloned 5-HT6 receptors. The note with it: [3H]-LSD 3.0 nM, Hela cell membranes, 120 min at room temperature. As to the method:
Comparative Evaluation of 5-HT6 Binding Affinity of Test Compounds
The affinity of test compounds for the serotonin 5-HT6 receptor is evaluated in the following manner. Cultured Hela cells expressing human cloned 5-HT6 receptors are harvested and centrifuged at low speed (1,000×g) for 10.0 min to remove the culture media. The harvested cells are suspended in half volume of fresh physiological phosphate buffered saline solution and recentrifuged at the same speed. This operation is repeated. The collected cells are then homogenized in ten volumes of 50 mM Tris.HCl (pH 7.4) and 0.5 mM EDTA. The homogenate is centrifuged at 40,000×g for 30.0 min and the precipitate is collected. The obtained pellet is resuspended in 10 volumes of Tris.HCl buffer and recentrifuged at the same speed. The final pellet is suspended in a small volume of Tris.HCl buffer and the tissue protein content is determined in aliquots of 10-25 μl volumes. Bovine Serum Albumin is used as the standard in the protein determination according to the method described in Lowry et al., J. Biol. Chem., 193:265 (1951). The volume of the suspended cell membranes is adjusted to give a tissue protein concentration of 1.0 mg/ml of suspension. The prepared membrane suspension (10 times concentrated) is aliquoted in 1.0 ml volumes and stored at −70° C. until used in subsequent binding experiments.
The reaction is allowed to proceed in the dark for 120 min at room temperature, at which time, the bound ligand-receptor complex is filtered off on a 96 well unifilter with a Packard Filtermate® 196 Harvester. The bound complex caught on the filter disk is allowed to air dry and the radioactivity is measured in a Packard TopCount® equipped with six photomultiplier detectors, after the addition of 40.0 μl Microscint®-20 scintillant to each shallow well. The unifilter plate is heat-sealed and counted in a PackardTopCount® with a tritium efficiency of 31.0%.
Binding in the presence of varying concentrations of test compound is expressed as a percentage of specific binding in the absence of test compound. The results are plotted as log % bound versus log concentration of test compound. […] A linear regression line of data points is plotted, from which the IC50 value is determined and the Ki value is determined based upon the following equation: […]
where L is the concentration of the radioactive ligand used and KD is the dissociation constant of the ligand for the receptor, both expressed in nM.
The compound “2-{(E)-1-[1-(naphthylsulfonyl)-1H-pyrrol-3-yl]ethylidene}-1-hydrazine-carboximidamide [Example 16]” came in with a Ki of 2 nM.

As to `N=C(N)N/N=C1\CCCc2c1ccn2S(=O)(=O)c1ccccc1` [Example 7, 2-[1-(Phenylsulfonyl)-1,5,6,7-tetrahydro-4H-indol-4-ylidine]-1-hydrazinecarboximidamide Hydrochloride], the Ki was 37 nM. Still for that read-out and setting: then `C/C(=N\NC(=N)N)c1c(C)cn(S(=O)(=O)c2ccccc2)c1C` [Example 13, 2-{(E)-1-[2,4-Dimethyl-1-(phenylsulfonyl)-1H-pyrrol-3-yl]ethylidine} hydrazinecarboximidamide Hydrochloride], with 6 nM; and `C/C(=N\NC(=N)N)c1ccn(S(=O)(=O)c2ccccc2)c1` [Example 14, 2-{(E)-1-[1-(phenylsulfonyl)-1H-pyrrol-3-yl]ethylidene}hydrazinecarboximidamide], with 1.5 nM. On the same count and under the same terms, as for `C/C(=N\NC(=N)N)c1ccn(S(=O)(=O)c2ccc(C)cc2)c1` [Example 15, 2-{(E)-1-[1-(4-methylphenylsulfonyl)-1H-pyrrol-3-yl]ethylidene}hydrazine-carboximidamide], the figure is 5.5 nM; as for `C/C(=N\NC(=N)N)c1ccn(S(=O)(=O)c2sc3ccc(Cl)cc3c2C)c1` [Example 17], 32 nM.

In the case of `C/C(=N\NC(=N)N)c1ccn(S(=O)(=O)c2ccc(N)cc2)c1` [Example 18, 2-((E)-1-{1-[(4-aminophenyl)sulfonyl]-1H-pyrrol-3-yl}ethylidene)-1-hydrazine-carboximidamide], the affinity corresponds to a Ki of 0.6 nM.

`C/C(=N\NC(=N)N)c1ccn(S(=O)(=O)c2sc(N)nc2C)c1` [Example 19, 2-((E)-1-{1-[(2-amino-4-methyl-1,3-thiazol-5-yl)sulfonyl]-1H-pyrrol-3-yl}ethylidene)-1-hydrazinecarboximidamide]: affinity was put at a Ki of 3.75 nM.

The record behind these values is patent US6727270B2, “Pyrrolylalkylidene-hydrazinecarboximidamide derivatives as 5-hydroxytryptamine-6 ligands” (Wyeth, priority 2002, dated 2004).
